Results on 23 compounds are retold here after US7476666B2, “HIV integrase inhibitors” (Merck & Co., Inc., priority 2004, dated 2009).

In this assay the test system is acute HIV infection of T-lymphoid cells. Kind of assay: Inhibition of acute HIV infection of T-lymphoid cells (spread assay). In kind it is cell-based. Conditions: Human immunodeficiency virus 1. The procedure: An assay for the inhibition of acute HIV infection of T-lymphoid cells (alternatively referred to herein as the “spread assay”) was conducted in accordance with Vacca, J. P. et al., Proc. Natl. Acad. Sci. USA 1994, 91: 4096.

SMILES strings stand for the structures. A value given as a limit tells only on which side of the number the result lay.

In the case of `CN1CC(c2ccccc2)n2nc(C(=O)NCc3ccc(F)cc3)c(O)c2C1=O` (centres unmarked) [Example 2, N-(4-Fluorobenzyl)-3-hydroxy-5-methyl-4-oxo-7-phenyl-4,5,6,7-tetrahydropyrazolo[1,5-a]pyrazine-2-carboxamide], the IC95 (commonly the concentration needed for an effect of 95%) was not above 10 µM.

Take `CNC(=O)c1cc(F)ccc1CNC(=O)c1nn2c(c1O)C(=O)N(C)CC2c1ccccc1` (centres unmarked) [Example 3, N-(4-Fluoro-2-[(methylamino)carbonyl]benzyl)-3-hydroxy-5-methyl-4-oxo-7-phenyl-4,5,6,7-tetrahydropyrazolo[1,5-a]pyrazine-2-carboxamide]: the IC95 is not above 10 µM.

`CNC(=O)c1nn2c(c1O)C(=O)N(Cc1ccc(F)cc1)CC2c1ccccc1` (centres unmarked) [Example 4, 5-(4-Fluorobenzyl)-3-hydroxy-N-methyl-4-oxo-7-phenyl-4,5,6,7-tetrahydropyrazolo[1,5-a]pyrazine-2-carboxamide] came in with an IC95 not above 10 µM.

`CC1Cn2nc(C(=O)NCc3ccc(F)cc3)c(O)c2C(=O)N1C` (centres unmarked) [Example 5, 5,6-Dimethyl-N-(4-fluorobenzyl)-3-hydroxy-4-oxo-4,5,6,7-tetrahydropyrazolo[1,5-a]pyrazine-2-carboxamide] had an IC95 not above 10 µM.

Take `CN1CC(C(=O)N2CCCCC2)n2nc(C(=O)NCc3ccc(F)cc3)c(O)c2C1=O` (centres unmarked) [Example 7, N-(4-Fluorobenzyl)-3-hydroxy-5-methyl-4-oxo-7-(piperidin-1-ylcarbonyl)-4,5,6,7-tetrahydropyrazolo[1,5-a]pyrazine-2-carboxamide]: the IC95 is not above 10 µM.

On to `CN(C)C(=O)C1(C)CN(C)C(=O)c2c(O)c(C(=O)NCc3ccc(F)cc3)nn21` (centres unmarked) [Example 8, 5,7-Dimethyl-N-(4-fluorobenzyl)-3-hydroxy-7-(dimethylaminocarbonyl)-4-oxo-4,5,6,7-tetrahydropyrazolo[1,5-a]pyrazine-2-carboxamide], for which the IC95 was not above 10 µM.

In turn, `CN1CC(CN2CCCCC2)n2nc(C(=O)NCc3ccc(F)cc3)c(O)c2C1=O` (centres unmarked) [Example 9, N-(4-fluorobenzyl)-3-hydroxy-5-methyl-4-oxo-7-(piperidin-1-ylmethyl)-4,5,6,7-tetrahydropyrazolo[1,5-a]pyrazine-2-carboxamide] registered an IC95 not above 10 µM.

As for `Cc1cn(C)c(=O)c2c(O)c(C(=O)NCc3ccc(F)cc3)nn12` [Example 10, 5,7-Dimethyl-N-(4-fluorobenzyl)-3-hydroxy-4-oxo-4,5-dihydropyrazolo[1,5-a]pyrazine-2-carboxamide], the IC95 was not above 10 µM.

In turn, `Cc1csc(C2CN(C)C(=O)c3c(O)c(C(=O)NCc4ccc(F)cc4)nn32)n1` (centres unmarked) [Example 11, N-(4-Fluorobenzyl)-3-hydroxy-5-methyl-7-(4-methyl-1,3-thiazol-2-yl)-4-oxo-4,5,6,7-tetrahydropyrazolo[1,5-a]pyrazine-2-carboxamide] had an IC95 not above 10 µM.

With `Cc1nc(C2CN(C)C(=O)c3c(O)c(C(=O)NCc4ccc(F)cc4)nn32)cs1` (centres unmarked) [Example 12, N-(4-Fluorobenzyl)-3-hydroxy-5-methyl-(2-methyl-1,3-thiazol-4-yl)-4-oxo-4,5,6,7-tetrahydropyrazolo[1,5-a]pyrazine-2-carboxamide], the IC95 was not above 10 µM.

As to `CN(Cc1ccc(F)cc1)C(=O)c1nn2c(c1O)C(=O)N(C)CC2` [Example 13, 2-[4-fluorobenzyl(methyl)aminocarbonyl]-3-hydroxy-5-methyl-4-oxo-4,5,6,7-tetrahydropyrazolo[1,5-a]pyrazine-2-carboxamide], the IC95 was not above 10 µM.

In the case of `CN1CCn2nc(C(=O)NCc3ccc(F)cc3S(C)(=O)=O)c(O)c2C1=O` [Example 15, N-[4-Fluoro-2-(methylsulfonyl)benzyl]-3-hydroxy-5-methyl-4-oxo-4,5,6,7-tetrahydropyrazolo[1,5-a]pyrazine-2-carboxamide], the IC95 is not above 10 µM.

The compound `O=C(NCc1ccc(Cl)c(Cl)c1)c1nn2c(c1O)C(=O)N(CC(=O)N1CCOCC1)CC2` [Example 20, N-(3,4-Dichlorobenzyl)-3-hydroxy-5-[2-(4-morpholinyl)-2-oxoethyl]-4-oxo-4,5,6,7-tetrahydropyrazolo[1,5-a]pyrazine-2-carboxamide] returned an IC95 not above 10 µM.

Compound `O=C(NCc1ccc(Cl)c(Cl)c1)c1nn2c(c1O)C(=O)N(CC1CC1)CC2` [Example 21, 5-Cyclopropylmethyl-N-(3,4-dichlorobenzyl)-3-hydroxy-4-oxo-4,5,6,7-tetrahydropyrazolo[1,5-a]pyrazine-2-carboxamide] had an IC95 not above 10 µM.

In turn, `O=C(NCc1ccc(Cl)c(Cl)c1)c1nn2c(c1O)C(=O)N(CCN1CCOCC1)CC2` [Example 22, N-(3,4-Dichlorobenzyl)-3-hydroxy-5-[2-(4-morpholinyl)ethyl]-4-oxo-4,5,6,7-tetrahydropyrazolo[1,5-a]pyrazine-2-carboxamide] showed an IC95 not above 10 µM.

In the case of `O=C(NCCN1CCOCC1)c1nn2c(c1O)C(=O)N(Cc1ccc(F)cc1)CC2` [Example 23, 5-(4-Fluorobenzyl)-3-hydroxy-N-[2-(4-morpholinyl)ethyl]-4-oxo-4,5,6,7-tetrahydropyrazolo[1,5-a]pyrazine-2-carboxamide], the IC95 is not above 10 µM.

`CCCCNC(=O)c1nn2c(c1O)C(=O)N(Cc1ccc(F)cc1)CC2` [Example 24, N-Butyl-5-(4-fluorobenzyl)-3-hydroxy-4-oxo-4,5,6,7-tetrahydropyrazolo[1,5-a]pyrazine-2-carboxamide]: the IC95 was not above 10 µM.

As for `O=C(c1nn2c(c1O)C(=O)N(Cc1ccc(F)cc1)CC2)N1CCC1` [Example 27, 2-(Azetidin-1-ylcarbonyl)-5-(4-fluorobenzyl)-3-hydroxy-4-oxo-4,5,6,7-tetrahydropyrazolo[1,5-a]pyrazine], the IC95 is not above 10 µM.

In turn, `O=C(NCc1ccc(F)cc1)c1nn2c(c1O)C(=O)NCCC2` [Example 29, N-(4-Fluorobenzyl)-3-hydroxy-4-oxo-5,6,7,8-tetrahydro-4H-pyrazolo[1,5-a][1,4]diazepine-2-carboxamide] returned an IC95 not above 10 µM.

For the compound `COC(=O)c1nn2c(c1O)C(=O)N(Cc1ccc(F)cc1)CCC2` [Example 30, Methyl 5-(4-Fluorobenzyl)-3-hydroxy-4-oxo-5,6,7,8-tetrahydro-4H-pyrazolo[1,5-a][1,4]diazepine-2-carboxylate], the IC95 was not above 10 µM.

With `CN1CC(c2cccnc2)n2nc(C(=O)NCc3ccc(F)cc3)c(O)c2C1=O` (centres unmarked) [Example 31, N-(4-fluorobenzyl)-3-hydroxy-5-methyl-4-oxo-7-pyridin-3-yl-4,5,6,7-tetrahydropyrazolo[1,5-a]pyrazine-2-carboxamide], the IC95 was not above 10 µM.

In turn, `Cn1c(=O)c2c(O)c(C(=O)NCc3ccc(F)cc3)nn2c2ccccc21` [Example 32, N-(4-fluorobenzyl)-3-hydroxy-5-methyl-4-oxo-4,5-dihydropyrazolo[1,5-a]quinoxaline-2-carboxamide] displayed an IC95 not above 10 µM.

Compound `CNC(=O)c1cc(F)ccc1CNC(=O)c1nn2c(c1O)C(=O)N(C)C[C@@H]2c1ccccc1` [Example 33, (7S)—N-{4-Fluoro-2-[(methylamino)carbonyl]benzyl}-3-hydroxy-5-methyl-4-oxo-7-phenyl-4,5,6,7-tetrahydropyrazolo[1,5-a]pyrazine-2-carboxamide] gave an IC95 not above 10 µM.
